Data on one compound can be found in US9763966B2, “Fluocinolone formulations in a biodegradable polymer carrier” (Warsaw Orthopedic, Inc., priority 2008, dated 2017).

In one experiment the test system is inflammatory response. Put plainly: Implant-site observation: resorption of foreign material and encapsulation (FIGS. 9 and 10). It is filed as in vivo. Conditions: picture. The source says:
FIG. 10 is a picture of fluocinolone implants 20 wt % 85/15 PLGA+10% mPEG and 1% wt fluocinolone 100 DL 7E+5% PEG/7% 50/50 PLGA 7A. The foreign and inflammatory material was not resorbed due to lack of inflammatory response mediated by fluocinolone implants.

Experiment [1] deals with chronic constriction injury (CCI) model of neuropathic pain. Put plainly: 2-month chronic constriction injury (CCI) model: mechanical threshold and thermal paw withdrawal latency. To be noted: compared with the fluocinolone implants. It is filed as in vivo. The protocol:
A 2-month chronic constriction injury (CCI) model of neuropathic pain was used to evaluate different formulations of a corticosteroid, fluocinolone, encapsulated in bioerodable polymers compared to fluocinolone given subcutaneously (SC). Different formulations as provided in Table B below were evaluated for reducing pain-associated behaviors: Thermal paw withdrawal latency was evaluated at baseline 7, 14, 21, 28, 35, 42, 49, and 56 days post-operatively, while mechanical threshold was evaluated at 8, 15, 22, 29, 36, 43, 50, and 57 days post-operatively.
There were seven groups of animals tested. […]
Mechanical allodynia was measured using von Frey monofilaments (Stoelting, Wood Dale, Ill.) with varying stiffness (2.0-15.0 g) on Days 1, 8, 15, 22, 29, 36, 43, 50 and 57 as described previously (see FIGS. 5-6). […] The 50% paw withdrawal threshold response was determined by a sequential increasing and/or decreasing of the stimulus strength (the “up-down method” of Dixon). […] The 50% paw withdrawal threshold was calculated using the formula: 10 (Xf+kd)/10,000, where Xf is the final von Frey filament used (log units), k is a value that analyzes the response pattern (taken from the table published by Chaplan et al.), and d is the mean difference between stimuli (log units). The mean and standard error of the mean (SEM) were determined for each treatment group.

Consider `CC1=C(CC(=O)O)c2cc(F)ccc2/C1=C\c1ccc([S+](C)[O-])cc1` (stereo not drawn) [sulindac], for which, in the experiment with inflammatory response, the encapsulation of implant entry is given as “did not prevent encapsulation”; the “resorption of foreign and inflammatory material (sutures)” value was “resorbed”. Moreover, in experiment [1], the pain control response result is reported as “very similar pain control response”.
